Columns and labels:
[1] = target: benzodiazepine (BZP) receptors; assay: Displacement ability for benzodiazepine receptor (tritiated diazepam binding, crude synaptosome fraction of cerebral cortex); parameters: species or system Wistar rats; details: displacement of tritiated diazepam (2 nM), 0°C, 20 minutes, rat cerebral cortex synaptosome fraction
Method: The test of specific binding to benzodiazepine (BZP) receptors was carried out according to the method described in Life Science, vol. 20, 2101 (1977).
The crude synaptosome fraction isolated from the cerebral cortex of male Wistar rats aged 9-10 weeks, was suspended in 50 mM Trishydrochloric acid buffer (pH 7.4) containing 120 mM sodium chloride and 5 mM potassium chloride. The suspension was used for the following experiment.
The test compound in several different concentrations and tritiated diazepam (in final concentration of 2 nM) were added to the synaptosomal suspension, and the mixture was incubated at 0°C for 20 minutes. The suspension was filtered with Whatman GF/B (Trademark) glassfiber filter. After the filter was washed with the above-mentioned buffer, the radio activity left on the filter was measured with a liquid scintillation counter.
The specific binding was determined by subtracting the binding in the presence of 10⁻⁶ M unlabelled diazepam from total binding.
The affinity for benzodiazepine receptors of the compound of the present invention is evaluated from its displacement ability for tritiated diazepam at its binding site, which is represented by Ki value (nM).

[2] = system: GABA-induced chloride current; assay type: cell-based, American bullfrogs; details: dorsal root ganglion neurons
Method: The test was carried out according to the method of Akaike et al. reported in Journal of Physiology (London), 379, 171 (1986) using sensory neurons isolated from dosal root ganglion of American bullfrogs. Neurons were voltage-clamped at a holding membrane potential of -50 mV with a single-electrode voltage-clamp system. Test compounds were applied by using a concentration-clamp technique. When the peak Cl⁻ current (ICl) elicited by 3 x 10⁻⁶ M GABA alone was presented as 1, the augumentive ICl of the test compounds in the presence of 3 x 10⁻⁶ M GABA was measured. The results were presented as relative ICl values in Table 1.

male ddY mice = assay: Acute toxicity; assay type: in vivo; details: 5 days
Method: Groups of 5 male ddY mice were used. […] Similarly, the mice were orally administered with 1000 mg/kg of the compound, but they survived for 5 days after the administration.

SMILES	Ki [1]	Relative ICl [2]	survival after administration (male ddY mice; 300 mg/kg intraperitoneally, groups of 5 male ddY mice)	survival after administration (male ddY mice; 1000 mg/kg orally, male ddY mice)
CC(=O)c1cc2c(s1)CCCC1CC(=O)N(c3ccc(Cl)cc3)N=C21 (stereo not shown) [Example 18, 9-acetyl-2-(4-chlorophenyl)-2,4,4a,5,6,7-hexahydro-3H-thieno[2',3':6,7]cyclohepta[1,2-c]pyridazin-3-one]	4.2 nM	1.38		
O=C(c1ccccc1)c1cc2c(s1)CCC1CC(=O)N(c3ccc(Cl)cc3)N=C21 (stereo not shown) [Example 16, 8-benzoyl-2-(4-chlorophenyl)-4,4a,5,6-tetrahydrothieno[2,3-h]cinnolin-3(2H)-one]			all mice survived	survived

From patent publication EP0601184A1, “FUSED PYRIDAZINE COMPOUND AND PHARMACEUTICAL USE THEREOF” (YOSHITOMI PHARMACEUTICAL INDUSTRIES, LTD., priority 1991, dated 1993)
